Reference: patent US20110300110A1, “ENAMINOCARBONYL COMPOUND/BENEFICIAL ORGANISM COMBINATIONS” (BAYER CROPSCIENCE AG, priority 2008, published 2011)

Tests used:
Type in all cases: in vivo
[1] = tested on: Coccinella septempunctata L2 larvae; assay: Larvae treatment Coccinella: kill of beneficial species larvae on Savoy cabbage
Procedure: (§1) Foliar treatment is carried out using compound (I-5) in a concentration of 75 g of active compound per hectare.
(§2) Drench treatment is carried out using compound (I-5) in a concentration of 10 mg of active compound per plant.
(§3) Foliar treatment with Karate Zeon CS100 as toxic control was carried out in a concentration of 12.5 g of active compound per hectare.
Beneficial species: Coccinella septempunctata L2 larvae Pest: Myzus persicae
Each experiment is carried out in 3 repetitions with in each case 2 pot cages with in each case 5 larvae.
For the experiment, Savoy cabbage plants are grown in pots having a diameter of 14 cm, placed in a breeding cage and infested thoroughly with Myzus persicae. Per experiment, 6 pots having a well-established aphid population are selected and the aphids are rated by estimation of their number. The plants are treated with the active compound solution of the appropriate concentration.
After the spray coating has dried on, a quartz sand layer of a thickness of about 1 cm is applied to the soil in the pot, and the pot cage is put over the plant. In each case 5 Coccinella larvae are then counted out, and in each case 5 specimen are added to the plants in the pot cage.
(§4) For each plant, at the beginning the Myzus persicae number is estimated at the appropriate points in time and the dead, dying and alive larvae are counted separately. All larvae, i.e. all larvae present on the plant and the surface of the quartz sand base, are counted.

[2] = tested on: Aphidoletes aphidimyza larvae; assay: Larvae treatment Aphidoletes: kill of beneficial species larvae on Savoy cabbage
Procedure: as §1, §2, §3
Beneficial species: Aphidoletes aphidimyza larvae Pest: Myzus persicae
Each experiment is carried out in 3 repetitions.
Per plot, 6 Savoy cabbage plants are placed into a planting-out tray and infested with Myzus persicae. About 1 week later, with a well-established Myzus population, the Aphidoletes aphidimyza are added. The application is carried after about 2 weeks once sufficient L2 stage Aphidoletes larvae are present (at least 20 larvae per tray).
In preparation for the application, the plants are reduced to 4 healthy green leaves.
Immediately prior to the application, the Myzus population and the number of Aphidoletes larvae are rated. For the application, all 6 plants of a plot are placed onto the turntable, and the amount of spray liquor for 0.666 m^2 is applied while turning slowly. After the application, the trays are placed into the standard cages.
For each plant, the number of Myzus persicae is estimated at the beginning at the appropriate points in time, and the larvae are counted accurately.

[3] = tested on: Myzus persicae; assay: Larvae treatment Episyrphus: infestation by Myzus persicae on Savoy cabbage; conditions: Episyrphus larvae added
Procedure: as §1, §2, §3
(§5) Beneficial species: Episyrphus balteatus larvae Pest: Myzus persicae
(§6) Per experiment, 3 repetitions with in each case 2 pot cages with in each case 5 larvae are carried out.
(§7) For the experiment, Savoy cabbage plants are grown in pots having a diameter of 14 cm, placed in a breeding cage and infested thoroughly with Myzus persicae.
(§8) After the spray coating has dried on, a quartz sand layer of a thickness of about 1 cm is applied to the soil in the pot, and the pot cage is put over the plant. In each case 5 Episyrphus larvae are then counted out, and in each case 5 specimen are added to the plants in the pot cage.
as §4

[4] = tested on: Episyrphus balteatus larvae; assay: Larvae treatment Episyrphus: kill of beneficial species larvae on Savoy cabbage
Procedure: as §1, §2, §3, §5, §6, §7, §8, §4

[5] = tested on: Macrolophus caliginosus nymphs; assay: Residual test with nymphs of Macrolophus caliginosus on tomato leaves
Procedure: Foliar treatment is carried out using compound (I-5) in a concentration of 100 g of active compound per hectare.
Drench treatment is carried out using compound (I-5) in a concentration of 15 mg of active compound per plant.
(§9) Foliar treatment with Karate Zeon CS100 as toxic control was carried out in a concentration of 12.5 g of active compound per hectare. The active compound in its respective formulation is brought to the required concentration by dilution with water.
(§10) Tomato plants cultivated in a greenhouse are treated with the respective active compound solutions. 1, 8, 16 and 23 days after the application, leaves are plucked from the test plants (5 samples per plot). The individual leaves are then mounted in test cages. 10 Macrolophus caliginosus nymphs are added to each cage. The test cages are placed under controlled conditions in a climatized chamber. The kill of the insects/larvae is determined after 24, 48 and 72 hours of exposure.

[6] = tested on: adult Nesidiocoris tenuis; assay: Residual test with adult Nesidiocoris tenuis on tomato leaves
Procedure: Foliar treatment is carried out using compound (I-5) in a concentration of 150 g of active compound per hectare.
as §2, §9
as §10, with “15” for “16”, “22” for “23”, “adult Nesidiocoris tenuis” for “Macrolophus caliginosus nymphs”, “insects” for “insects/larvae”

[7] = 0 days after application, drench 10 mg a.i./plant
[8] = 0 days after application, foliar: (I-5) 75 g a.i./ha, Karate Zeon CS100 12.5 g a.i./ha
[9] = 1 day after application, drench 10 mg a.i./plant
[10] = 1 day after application, foliar: (I-5) 75 g a.i./ha, Karate Zeon CS100 12.5 g a.i./ha
[11] = 3 days after application, drench 10 mg a.i./plant
[12] = 3 days after application, foliar: (I-5) 75 g a.i./ha, Karate Zeon CS100 12.5 g a.i./ha
[13] = 5 days after application, drench 10 mg a.i./plant
[14] = 5 days after application, foliar: (I-5) 75 g a.i./ha, Karate Zeon CS100 12.5 g a.i./ha

## O=C1C=C(N(Cc2ccc(Cl)nc2)CC(F)F)CO1 [compound (I-5), 4-{[(6-chloropyrid-3-yl)methyl](2,2-difluoroethyl)amino}furan-2(5H)-one]
[1]; [7]
  kill of Coccinella septempunctata larvae [% Abbott]: 0%
[1]; [8]
  kill of Coccinella septempunctata larvae [% Abbott]: 0%
[1]; [9]
  kill of Coccinella septempunctata larvae [% Abbott]: 1.7%
[1]; [10]
  kill of Coccinella septempunctata larvae [% Abbott]: 3.3%
[1]; [11]
  kill of Coccinella septempunctata larvae [% Abbott]: 1.7%
[1]; [12]
  kill of Coccinella septempunctata larvae [% Abbott]: 1.7%
[1]; [13]
  kill of Coccinella septempunctata larvae [% Abbott]: 3.4%
[1]; [14]
  kill of Coccinella septempunctata larvae [% Abbott]: 6.9%
[2]; [7]
  kill of Aphidoteles aphidimyza larvae [% Abbott]: 0%
[2]; [8]
  kill of Aphidoteles aphidimyza larvae [% Abbott]: 0%
[2]; [9]
  kill of Aphidoteles aphidimyza larvae [% Abbott]: 3.2%
[2]; [10]
  kill of Aphidoteles aphidimyza larvae [% Abbott]: 10.2%
[2]; [11]
  kill of Aphidoteles aphidimyza larvae [% Abbott]: 4.3%
[2]; [12]
  kill of Aphidoteles aphidimyza larvae [% Abbott]: 10.5%
[2]; [13]
  kill of Aphidoteles aphidimyza larvae [% Abbott]: 7.8%
[2]; [14]
  kill of Aphidoteles aphidimyza larvae [% Abbott]: 15.2%
[3]; [13]
  Infestation by Myzus persicae (number per plant): 23 number per plant
[3]; [14]
  Infestation by Myzus persicae (number per plant): 0 number per plant
[3]; prior to application (baseline), drench 10 mg a.i./plant
  Infestation by Myzus persicae (number per plant): 394 number per plant
[3]; prior to application (baseline), foliar: (I-5) 75 g a.i./ha, Karate Zeon CS100 12.5 g a.i./ha
  Infestation by Myzus persicae (number per plant): 375 number per plant
[4]; [7]
  kill of Episyrphus balteatus larvae [% Abbott]: 0%
[4]; [8]
  kill of Episyrphus balteatus larvae [% Abbott]: 0%
[4]; [9]
  kill of Episyrphus balteatus larvae [% Abbott]: 10.3%
[4]; [10]
  kill of Episyrphus balteatus larvae [% Abbott]: 6.1%
[4]; [11]
  kill of Episyrphus balteatus larvae [% Abbott]: 10.3%
[4]; [12]
  kill of Episyrphus balteatus larvae [% Abbott]: 9%
[4]; [13]
  kill of Episyrphus balteatus larvae [% Abbott]: 0%
[4]; [14]
  kill of Episyrphus balteatus larvae [% Abbott]: 0%
[5]; leaves plucked 1 day after application, drench 15 mg a.i./plant
  Activity against nymphs of Macrolophus caliginosus on tomato [% kill according to Schneider-Orelli]: 0%
[5]; leaves plucked 1 day after application, foliar: (I-5) 100 g a.i./ha, Karate Zeon CS100 12.5 g a.i./ha
  Activity against nymphs of Macrolophus caliginosus on tomato [% kill according to Schneider-Orelli]: 52.2%
[5]; leaves plucked 8 days after application, drench 15 mg a.i./plant
  Activity against nymphs of Macrolophus caliginosus on tomato [% kill according to Schneider-Orelli]: 65.4%
[5]; leaves plucked 8 days after application, foliar: (I-5) 100 g a.i./ha, Karate Zeon CS100 12.5 g a.i./ha
  Activity against nymphs of Macrolophus caliginosus on tomato [% kill according to Schneider-Orelli]: 72.2%
[5]; leaves plucked 16 days after application, drench 15 mg a.i./plant
  Activity against nymphs of Macrolophus caliginosus on tomato [% kill according to Schneider-Orelli]: 35.7%
[5]; leaves plucked 16 days after application, foliar: (I-5) 100 g a.i./ha, Karate Zeon CS100 12.5 g a.i./ha
  Activity against nymphs of Macrolophus caliginosus on tomato [% kill according to Schneider-Orelli]: 21.7%
[5]; leaves plucked 23 days after application, drench 15 mg a.i./plant
  Activity against nymphs of Macrolophus caliginosus on tomato [% kill according to Schneider-Orelli]: 23.6%
[5]; leaves plucked 23 days after application, foliar: (I-5) 100 g a.i./ha, Karate Zeon CS100 12.5 g a.i./ha
  Activity against nymphs of Macrolophus caliginosus on tomato [% kill according to Schneider-Orelli]: 41.8%
[6]; leaves plucked 1 day after application, drench 10 mg a.i./plant
  Activity against adult Nesidiocoris tenuis on tomato [% kill according to Schneider-Orelli]: 4.9%
[6]; leaves plucked 1 day after application, foliar: (I-5) 150 g a.i./ha, Karate Zeon CS100 12.5 g a.i./ha
  Activity against adult Nesidiocoris tenuis on tomato [% kill according to Schneider-Orelli]: 91.1%
[6]; leaves plucked 8 days after application, drench 10 mg a.i./plant
  Activity against adult Nesidiocoris tenuis on tomato [% kill according to Schneider-Orelli]: 47.3%
[6]; leaves plucked 8 days after application, foliar: (I-5) 150 g a.i./ha, Karate Zeon CS100 12.5 g a.i./ha
  Activity against adult Nesidiocoris tenuis on tomato [% kill according to Schneider-Orelli]: 81.3%
[6]; leaves plucked 15 days after application, drench 10 mg a.i./plant
  Activity against adult Nesidiocoris tenuis on tomato [% kill according to Schneider-Orelli]: 24.4%
[6]; leaves plucked 15 days after application, foliar: (I-5) 150 g a.i./ha, Karate Zeon CS100 12.5 g a.i./ha
  Activity against adult Nesidiocoris tenuis on tomato [% kill according to Schneider-Orelli]: 32.1%
[6]; leaves plucked 22 days after application, drench 10 mg a.i./plant
  Activity against adult Nesidiocoris tenuis on tomato [% kill according to Schneider-Orelli]: 66%
[6]; leaves plucked 22 days after application, foliar: (I-5) 150 g a.i./ha, Karate Zeon CS100 12.5 g a.i./ha
  Activity against adult Nesidiocoris tenuis on tomato [% kill according to Schneider-Orelli]: 45.8%
